Results on 3 compounds are retold here after PMC4432287, “NsrR from Streptomyces coelicolor Is a Nitric Oxide-sensing [4Fe-4S] Cluster Protein with a Specialized Regulatory Function” (The Journal of Biological Chemistry, 2015).

Each structure is given as a SMILES string.

As a reminder, the Kd is the equilibrium constant for the complex coming apart. Read a high Kd as weaker binding.

The target in this assay is T1, ScNsrR ([4Fe-4S] NsrR) (Streptomyces coelicolor, UniProt Q9L132).
T1 construct: untagged native full-length protein from pNsrR, E. coli BL21λDE3, anaerobic heparin purification, homodimer (~37 kDa by gel filtration); C-terminal His6 form (apo 17,474 Da) used for native MS
T1 sequence (Q9L132 whole entry): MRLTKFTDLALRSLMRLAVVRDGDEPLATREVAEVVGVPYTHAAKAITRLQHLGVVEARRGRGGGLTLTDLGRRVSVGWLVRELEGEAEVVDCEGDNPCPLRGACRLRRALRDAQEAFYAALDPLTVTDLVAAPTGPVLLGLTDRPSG
Nature of the assay: CD titration at […] nm, single-site fit. In kind it is binding.
`OC(CS)C(O)CS` (stereo not drawn) [dithiothreitol] displayed a Kd of 9.9 mM.
In the case of `CCS` [thioethane] it was approximately 1.9 mM; in that of `OCCS` [β-mercaptoethanol], approximately 3.8 mM.
